Data on five compounds can be found in the supplement of paper PMC10307832.

Each structure is given as a SMILES string.

In the first experiment the test system is NCI-H2087. Briefly: relative viability (nuclei count vs DMSO), 5 days (fraction); higher = more cells survive. To be noted: first compound 8 µM. The procedure, abridged:
(§1)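 Dosing by pin tool came one day after lung cancer cell lines were seeded in 1536-well plates, using either one drug or a fixed anchor-drug dose plus five library-drug doses (not always all listed) in √10 steps. After 5 days, nuclei were counted on 4× images. Relative viability is treated-well nuclei count divided by vehicle-well nuclei count, and values are medians of duplicate plates.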
Turning to `CCCCCCCCCCCC1=C(O)C(=O)C=C(O)C1=O` [Embelin] + Cc1cc(Nc2cc(N3CCN(C)CC3)nc(Sc3ccc(NC(=O)C4CC4)cc3)n2)n[nH]1 [Tozasertib] (partner 0.1 µM), the relative viability was 0.217.
Consider `CCCCCCCCCCCC1=C(O)C(=O)C=C(O)C1=O` [Embelin] + CC(=O)Nc1cccc(-n2c(=O)n(C3CC3)c(=O)c3c(Nc4ccc(I)cc4F)n(C)c(=O)c(C)c32)c1 [Trametinib] (partner 0.02 µM), for which the relative viability was found to be 0.182.
`CCCCCCCCCCCC1=C(O)C(=O)C=C(O)C1=O` [Embelin] + Nc1ncn([C@H]2C[C@H](O)[C@@H](CO)O2)c(=O)n1 [Decitabine] (partner 2 µM) yielded a relative viability of 0.225.
Same read-out and setting: then `CCCCCCCCCCCC1=C(O)C(=O)C=C(O)C1=O` [Embelin] + COc1cccc2cc(-c3nc([C@H]4CC[C@H](C(=O)O)CC4)n4ncnc(N)c34)[nH]c12 [OSI-027] (partner 0.5 µM), with 0.628; and `CCCCCCCCCCCC1=C(O)C(=O)C=C(O)C1=O` [Embelin] + Nc1nc2[nH]cc(CCc3ccc(C(=O)N[C@@H](CCC(=O)O)C(=O)O)cc3)c2c(=O)[nH]1 [Pemetrexed] (partner 0.2 µM), with 0.646.

For a further experiment, the system named is NCI-H1915. Described as above. The settings on record: first compound 0.08 µM. The procedure, abridged:
as §1
Consider `CCCCCCCCCCCC1=C(O)C(=O)C=C(O)C1=O` [Embelin] + Cc1cc(Nc2cc(N3CCN(C)CC3)nc(Sc3ccc(NC(=O)C4CC4)cc3)n2)n[nH]1 [Tozasertib] (partner 0.1 µM), for which the relative viability is 0.463.
Regarding `CCCCCCCCCCCC1=C(O)C(=O)C=C(O)C1=O` [Embelin] + CC(=O)Nc1cccc(-n2c(=O)n(C3CC3)c(=O)c3c(Nc4ccc(I)cc4F)n(C)c(=O)c(C)c32)c1 [Trametinib] (partner 0.02 µM), the relative viability turned out to be 0.319.
`CCCCCCCCCCCC1=C(O)C(=O)C=C(O)C1=O` [Embelin] + Nc1ncn([C@H]2C[C@H](O)[C@@H](CO)O2)c(=O)n1 [Decitabine] (partner 2 µM) had a relative viability of 0.265.
In turn, `CCCCCCCCCCCC1=C(O)C(=O)C=C(O)C1=O` [Embelin] + COc1cccc2cc(-c3nc([C@H]4CC[C@H](C(=O)O)CC4)n4ncnc(N)c34)[nH]c12 [OSI-027] (partner 0.5 µM) had a relative viability of 0.679.
The compound `CCCCCCCCCCCC1=C(O)C(=O)C=C(O)C1=O` [Embelin] + Nc1nc2[nH]cc(CCc3ccc(C(=O)N[C@@H](CCC(=O)O)C(=O)O)cc3)c2c(=O)[nH]1 [Pemetrexed] (partner 0.2 µM) displayed a relative viability of 0.518.

The same experiment, now with this note: first compound 0.8 µM.
Consider `CCCCCCCCCCCC1=C(O)C(=O)C=C(O)C1=O` [Embelin] + Cc1cc(Nc2cc(N3CCN(C)CC3)nc(Sc3ccc(NC(=O)C4CC4)cc3)n2)n[nH]1 [Tozasertib] (partner 0.1 µM), for which the relative viability amounted to 0.448.
`CCCCCCCCCCCC1=C(O)C(=O)C=C(O)C1=O` [Embelin] + CC(=O)Nc1cccc(-n2c(=O)n(C3CC3)c(=O)c3c(Nc4ccc(I)cc4F)n(C)c(=O)c(C)c32)c1 [Trametinib] (partner 0.02 µM) displayed a relative viability of 0.33.
As for `CCCCCCCCCCCC1=C(O)C(=O)C=C(O)C1=O` [Embelin] + Nc1ncn([C@H]2C[C@H](O)[C@@H](CO)O2)c(=O)n1 [Decitabine] (partner 2 µM), the relative viability was 0.241.
Turning to `CCCCCCCCCCCC1=C(O)C(=O)C=C(O)C1=O` [Embelin] + COc1cccc2cc(-c3nc([C@H]4CC[C@H](C(=O)O)CC4)n4ncnc(N)c34)[nH]c12 [OSI-027] (partner 0.5 µM), the relative viability is 0.707.
For `CCCCCCCCCCCC1=C(O)C(=O)C=C(O)C1=O` [Embelin] + Nc1nc2[nH]cc(CCc3ccc(C(=O)N[C@@H](CCC(=O)O)C(=O)O)cc3)c2c(=O)[nH]1 [Pemetrexed] (partner 0.2 µM), the relative viability stood at 0.488.

Staying with this experiment, now noted: first compound 2.53 µM.
In turn, `CCCCCCCCCCCC1=C(O)C(=O)C=C(O)C1=O` [Embelin] + Cc1cc(Nc2cc(N3CCN(C)CC3)nc(Sc3ccc(NC(=O)C4CC4)cc3)n2)n[nH]1 [Tozasertib] (partner 0.1 µM) returned a relative viability of 0.458.
Compound `CCCCCCCCCCCC1=C(O)C(=O)C=C(O)C1=O` [Embelin] + CC(=O)Nc1cccc(-n2c(=O)n(C3CC3)c(=O)c3c(Nc4ccc(I)cc4F)n(C)c(=O)c(C)c32)c1 [Trametinib] (partner 0.02 µM) showed a relative viability of 0.263.
Compound `CCCCCCCCCCCC1=C(O)C(=O)C=C(O)C1=O` [Embelin] + Nc1ncn([C@H]2C[C@H](O)[C@@H](CO)O2)c(=O)n1 [Decitabine] (partner 2 µM) registered a relative viability of 0.263.
As to `CCCCCCCCCCCC1=C(O)C(=O)C=C(O)C1=O` [Embelin] + COc1cccc2cc(-c3nc([C@H]4CC[C@H](C(=O)O)CC4)n4ncnc(N)c34)[nH]c12 [OSI-027] (partner 0.5 µM), the relative viability was found to be 0.602.
Same read-out and setting: in the case of `CCCCCCCCCCCC1=C(O)C(=O)C=C(O)C1=O` [Embelin] + Nc1nc2[nH]cc(CCc3ccc(C(=O)N[C@@H](CCC(=O)O)C(=O)O)cc3)c2c(=O)[nH]1 [Pemetrexed] (partner 0.2 µM) it was 0.558.

Still in this experiment, the particulars now being: first compound 8 µM.
In the case of `CCCCCCCCCCCC1=C(O)C(=O)C=C(O)C1=O` [Embelin] + Cc1cc(Nc2cc(N3CCN(C)CC3)nc(Sc3ccc(NC(=O)C4CC4)cc3)n2)n[nH]1 [Tozasertib] (partner 0.1 µM), the relative viability was 0.49.
Regarding `CCCCCCCCCCCC1=C(O)C(=O)C=C(O)C1=O` [Embelin] + CC(=O)Nc1cccc(-n2c(=O)n(C3CC3)c(=O)c3c(Nc4ccc(I)cc4F)n(C)c(=O)c(C)c32)c1 [Trametinib] (partner 0.02 µM), the relative viability was 0.295.
For the compound `CCCCCCCCCCCC1=C(O)C(=O)C=C(O)C1=O` [Embelin] + Nc1ncn([C@H]2C[C@H](O)[C@@H](CO)O2)c(=O)n1 [Decitabine] (partner 2 µM), the relative viability came to 0.264.
The compound `CCCCCCCCCCCC1=C(O)C(=O)C=C(O)C1=O` [Embelin] + COc1cccc2cc(-c3nc([C@H]4CC[C@H](C(=O)O)CC4)n4ncnc(N)c34)[nH]c12 [OSI-027] (partner 0.5 µM) displayed a relative viability of 0.653.
The same measure, in the same setting: then `CCCCCCCCCCCC1=C(O)C(=O)C=C(O)C1=O` [Embelin] + Nc1nc2[nH]cc(CCc3ccc(C(=O)N[C@@H](CCC(=O)O)C(=O)O)cc3)c2c(=O)[nH]1 [Pemetrexed] (partner 0.2 µM), with 0.55.

The subject of a further experiment is HCC-366. The description is as above. To be noted: first compound 0.08 µM. In a few lines:
as §1
`CCCCCCCCCCCC1=C(O)C(=O)C=C(O)C1=O` [Embelin] + Cc1cc(Nc2cc(N3CCN(C)CC3)nc(Sc3ccc(NC(=O)C4CC4)cc3)n2)n[nH]1 [Tozasertib] (partner 0.1 µM) yielded a relative viability of 0.108.
On to `CCCCCCCCCCCC1=C(O)C(=O)C=C(O)C1=O` [Embelin] + CC(=O)Nc1cccc(-n2c(=O)n(C3CC3)c(=O)c3c(Nc4ccc(I)cc4F)n(C)c(=O)c(C)c32)c1 [Trametinib] (partner 0.02 µM), for which the relative viability amounted to 0.385.
`CCCCCCCCCCCC1=C(O)C(=O)C=C(O)C1=O` [Embelin] + Nc1ncn([C@H]2C[C@H](O)[C@@H](CO)O2)c(=O)n1 [Decitabine] (partner 2 µM) displayed a relative viability of 0.341.
